The values below are quoted from earlier work in patent US12150952B2, “Formulation for the use in the simultaneous treatment of coccidial infections and iron deficiencies” (Elanco Animal Health GmbH, priority 2018, dated 2024).

Read-outs that look alike come from different tables or passages of the source.

For data set [1] the following is noted: value to be understood as stated ±1.
The subject of data set [2] is Isospora suis. To be noted: coccidiosis.

Take `CCCCC(CC)COC(=O)CC(C(=O)OCC(CC)CCCC)S(=O)(=O)[O-].[Na+]` (stereo not drawn) [Sodium docusate]: the HLB entry in data set [1] is on record as “about 10”; in data set [1] (listed as Sodium Docusate), 10. On to `CCCc1ncc(C[n+]2ccccc2C)c(N)n1` [amprolium], for which, in data set [2], the “preventing the disease in experimentally infected piglets” value (“preventing the disease” below) is “not been successful in preventing the disease”. On to `O=C1OCCN1/N=C/c1ccc([N+](=O)[O-])o1` [furazolidon], for which, in data set [2], the “preventing the disease” value is “not been successful in preventing the disease”. Take `CC[C@@]1([C@@H]2O[C@@H]([C@H]3O[C@@](O)(CO)[C@H](C)C[C@@H]3C)C[C@@H]2C)CC[C@H]([C@]2(C)CC[C@]3(C[C@H](O)[C@@H](C)[C@@H]([C@@H](C)[C@@H](OC)[C@H](C)C(=O)O)O3)O2)O1` [monensin]: the “preventing the disease” value in data set [2] is “not been successful in preventing the disease”. As to Sorbitan Monooleate, the HLB entry in data set [1] is on record as “about 4.6”.
